The values that follow come from publication PMC6943423, “Structure-Activity Study of an All-D Antimicrobial Octapeptide D2D” (Molecules, 2019).

Square brackets hold non-standard residues; d marks the D form. Peptide text beside a SMILES is read from it. d1Nal = N[C@H](Cc1cccc2ccccc12)C(=O)O; dNle = CCCC[C@@H](N)C(=O)O

The subject of the data set is human red blood cells. The experiment in a line: Hemolytic activity. The format is cell-based. The following applies: red cells of human, 1 h, 150. The protocol:
The percentage of hemolysis at 150 μM was determined for all compounds as previously described. Briefly, two-fold serial dilutions (2.35 to 150 μM) of compounds in PBS were mixed with a 0.5% v/v suspension of fresh human red blood cells (RBC) in the same buffer. After 1 h incubation at 37 °C, plates were centrifuged and aliquots of the supernatants were transferred to clear ELISA plates. Absorbance at 414 nm was determined and normalised with respect to a negative (PBS, 0%) and positive (melittin, 100%) control.
`CCCC[C@@H](NC(=O)[C@@H](Cc1cccc2ccccc12)NC(=O)[C@@H](Cc1cccc2ccccc12)NC(=O)[C@@H](CCCCN)NC(=O)[C@@H](Cc1ccccc1)NC(=O)[C@@H](Cc1cccc2ccccc12)NC(=O)[C@@H](CCCCN)NC(=O)[C@H](N)CCCCN)C(N)=O` [Compound 17, kk(1-nal)fk(1-nal)(1-nal)(nle)-NH2] (H-[dK][dK][d1Nal][dF][dK][d1Nal][d1Nal][dNle]-NH2; N-terminus assumed): the “%H (% Hemolysis at 150 µM)” value amounted to 89%.
As for `CCCC[C@@H](NC(=O)[C@@H](CCCC)NC(=O)[C@@H](Cc1cccc2ccccc12)NC(=O)[C@@H](CCCCN)NC(=O)[C@@H](Cc1ccccc1)NC(=O)[C@@H](Cc1cccc2ccccc12)NC(=O)[C@@H](CCCCN)NC(=O)[C@H](N)CCCCN)C(N)=O` [Compound 19, kk(1-nal)fk(1-nal)(nle)(nle)-NH2] (H-[dK][dK][d1Nal][dF][dK][d1Nal][dNle][dNle]-NH2; N-terminus assumed), the figure is 56%; as for `CCCC[C@@H](NC(=O)[C@@H](Cc1ccccc1)NC(=O)[C@@H](Cc1cccc2ccccc12)NC(=O)[C@@H](CCCCN)NC(=O)[C@@H](Cc1ccccc1)NC(=O)[C@@H](Cc1cccc2ccccc12)NC(=O)[C@@H](CCCCN)NC(=O)[C@H](N)CCCCN)C(N)=O` [Compound 20, kk(1-nal)fk(1-nal)f(nle)-NH2] (H-[dK][dK][d1Nal][dF][dK][d1Nal][dF][dNle]-NH2; N-terminus assumed), 91%; as for `CCCC[C@@H](NC(=O)[C@@H](CO)NC(=O)[C@@H](Cc1cccc2ccccc12)NC(=O)[C@@H](CCCCN)NC(=O)[C@@H](Cc1ccccc1)NC(=O)[C@@H](Cc1cccc2ccccc12)NC(=O)[C@@H](CCCCN)NC(=O)[C@H](N)CCCCN)C(N)=O` [Compound 21, kk(1-nal)fk(1-nal)s(nle)-NH2] (H-[dK][dK][d1Nal][dF][dK][d1Nal][dS][dNle]-NH2; N-terminus assumed), 85%.
As for `CCCC[C@@H](NC(=O)[C@H](NC(=O)[C@@H](Cc1cccc2ccccc12)NC(=O)[C@@H](CCCCN)NC(=O)[C@@H](Cc1ccccc1)NC(=O)[C@@H](Cc1cccc2ccccc12)NC(=O)[C@@H](CCCCN)NC(=O)[C@H](N)CCCCN)[C@H](C)O)C(N)=O` [Compound 22, kk(1-nal)fk(1-nal)t(nle)-NH2] (H-[dK][dK][d1Nal][dF][dK][d1Nal][dT][dNle]-NH2; N-terminus assumed), the figure is 66%.
Consider `CCCC[C@@H](NC(=O)[C@@H](Cc1ccc(O)cc1)NC(=O)[C@@H](Cc1cccc2ccccc12)NC(=O)[C@@H](CCCCN)NC(=O)[C@@H](Cc1ccccc1)NC(=O)[C@@H](Cc1cccc2ccccc12)NC(=O)[C@@H](CCCCN)NC(=O)[C@H](N)CCCCN)C(N)=O` [Compound 23, kk(1-nal)fk(1-nal)y(nle)-NH2] (H-[dK][dK][d1Nal][dF][dK][d1Nal][dY][dNle]-NH2; N-terminus assumed), for which the “%H (% Hemolysis at 150 µM)” value was determined as 74%.
As for `CCCC[C@@H](NC(=O)[C@H](NC(=O)[C@@H](Cc1cccc2ccccc12)NC(=O)[C@@H](CCCCN)NC(=O)[C@@H](Cc1ccccc1)NC(=O)[C@@H](Cc1cccc2ccccc12)NC(=O)[C@@H](CCCCN)NC(=O)[C@H](N)CCCCN)C(C)C)C(N)=O` [Compound 24, kk(1-nal)fk(1-nal)v(nle)-NH2] (H-[dK][dK][d1Nal][dF][dK][d1Nal][dV][dNle]-NH2; N-terminus assumed), the figure is 50%; as for `CCCC[C@@H](NC(=O)[C@@H](Cc1cccc2ccccc12)NC(=O)[C@@H](CCCCN)NC(=O)[C@@H](CCCCN)NC(=O)[C@@H](Cc1ccccc1)NC(=O)[C@@H](Cc1cccc2ccccc12)NC(=O)[C@@H](CCCCN)NC(=O)[C@H](N)CCCCN)C(N)=O` [Compound 25, kk(1-nal)fkk(1-nal)(nle)-NH2] (H-[dK][dK][d1Nal][dF][dK][dK][d1Nal][dNle]-NH2), 50%; as for `CCCC[C@@H](NC(=O)[C@@H](Cc1cccc2ccccc12)NC(=O)[C@@H](CCCCN)NC(=O)[C@@H](Cc1ccccc1)NC(=O)[C@@H](Cc1cccc2ccccc12)NC(=O)[C@@H](CCCCN)NC(=O)[C@H](N)CCCCN)C(=O)N[C@H](CCCCN)C(N)=O` [Compound 26, kk(1-nal)fk(1-nal)(nle)k-NH2] (H-[dK][dK][d1Nal][dF][dK][d1Nal][dNle][dK]-NH2; N-terminus assumed), 18%.
The value for `CCCC[C@@H](NC(=O)[C@@H](CCCCN)NC(=O)[C@@H](Cc1cccc2ccccc12)NC(=O)[C@@H](CCCCN)NC(=O)[C@@H](Cc1ccccc1)NC(=O)[C@@H](Cc1cccc2ccccc12)NC(=O)[C@H](N)CCCCN)C(N)=O` [Compound 27, k(1-nal)fk(1-nal)k(nle)-NH2] (H-[dK][d1Nal][dF][dK][d1Nal][dK][dNle]-NH2; N-terminus assumed) was 49%; that for `CCCC[C@@H](NC(=O)[C@@H](CCCCN)NC(=O)[C@@H](Cc1cccc2ccccc12)NC(=O)[C@@H](CCCCN)NC(=O)[C@@H](Cc1ccccc1)NC(=O)[C@H](N)Cc1cccc2ccccc12)C(N)=O` [Compound 28, (1-nal)fk(1-nal)k(nle)-NH2] (H-[d1Nal][dF][dK][d1Nal][dK][dNle]-NH2; N-terminus assumed) was 62%; that for `NCCCC[C@@H](N)C(=O)N[C@H](CCCCN)C(=O)N[C@H](Cc1cccc2ccccc12)C(=O)N[C@H](Cc1ccccc1)C(=O)N[C@H](CCCCN)C(=O)N[C@H](Cc1cccc2ccccc12)C(=O)N[C@H](CCCCN)C(N)=O` [Compound 30, kk(1-nal)fk(1-nal)k-NH2] (HELM PEPTIDE1{[dK].[dK].[O=C([C@@H](Cc1cccc2ccccc12)N[*:1])[*:2]].[dF].[dK].[O=C([C@@H](Cc1cccc2ccccc12)N[*:1])[*:2]].[dK].[am]}$$$$V2.0; N-terminus assumed) was 11%.
`NCCCC[C@@H](N)C(=O)N[C@H](CCCCN)C(=O)N[C@H](Cc1cccc2ccccc12)C(=O)N[C@H](Cc1ccccc1)C(=O)N[C@H](CCCCN)C(=O)N[C@H](Cc1cccc2ccccc12)C(N)=O` [Compound 31, kk(1-nal)fk(1-nal)-NH2] (HELM PEPTIDE1{[dK].[dK].[O=C([C@@H](Cc1cccc2ccccc12)N[*:1])[*:2]].[dF].[dK].[O=C([C@@H](Cc1cccc2ccccc12)N[*:1])[*:2]].[am]}$$$$V2.0; N-terminus assumed): the “%H (% Hemolysis at 150 µM)” value was 20%.
The value for `NCCCC[C@@H](N)C(=O)N[C@H](CCCCN)C(=O)N[C@H](Cc1cccc2ccccc12)C(=O)N[C@H](Cc1ccccc1)C(=O)N[C@H](CCCCN)C(N)=O` [Compound 32, kk(1-nal)fk-NH2] (HELM PEPTIDE1{[dK].[dK].[O=C([C@@H](Cc1cccc2ccccc12)N[*:1])[*:2]].[dF].[dK].[am]}$$$$V2.0; N-terminus assumed) was 5%.
Take `CCCC[C@@H](NC(=O)[C@@H](CCCCN)NC(=O)[C@@H](Cc1cccc2ccccc12)NC(=O)[C@@H](CCCCN)NC(=O)[C@@H](Cc1ccccc1)NC(=O)[C@@H](Cc1cccc2ccccc12)NC(=O)[C@@H](CCCCN)NC(=O)[C@H](N)CCCNC(=N)N)C(N)=O` [Compound 33, rk(1-nal)fk(1-nal)k(nle)-NH2] (H-[dR][dK][d1Nal][dF][dK][d1Nal][dK][dNle]-NH2): the “%H (% Hemolysis at 150 µM)” value was found to be 60%.
As for `CCCC[C@@H](NC(=O)[C@@H](CCCCN)NC(=O)[C@@H](Cc1cccc2ccccc12)NC(=O)[C@@H](CCCCN)NC(=O)[C@@H](Cc1ccccc1)NC(=O)[C@@H](Cc1cccc2ccccc12)NC(=O)[C@@H](CCCNC(=N)N)NC(=O)[C@H](N)CCCCN)C(N)=O` [Compound 34, kr(1-nal)fk(1-nal)k(nle)-NH2] (H-[dK][dR][d1Nal][dF][dK][d1Nal][dK][dNle]-NH2; N-terminus assumed), the figure is 35%; as for `CCCC[C@@H](NC(=O)[C@@H](CCCCN)NC(=O)[C@@H](Cc1cccc2ccccc12)NC(=O)[C@@H](CCCNC(=N)N)NC(=O)[C@@H](Cc1ccccc1)NC(=O)[C@@H](Cc1cccc2ccccc12)NC(=O)[C@@H](CCCCN)NC(=O)[C@H](N)CCCCN)C(N)=O` [Compound 35, kk(1-nal)fr(1-nal)k(nle)-NH2] (H-[dK][dK][d1Nal][dF][dR][d1Nal][dK][dNle]-NH2; N-terminus assumed), 49%.
As to `CCCC[C@@H](NC(=O)[C@@H](CCCNC(=N)N)NC(=O)[C@@H](Cc1cccc2ccccc12)NC(=O)[C@@H](CCCCN)NC(=O)[C@@H](Cc1ccccc1)NC(=O)[C@@H](Cc1cccc2ccccc12)NC(=O)[C@@H](CCCCN)NC(=O)[C@H](N)CCCCN)C(N)=O` [Compound 36, kk(1-nal)fk(1-nal)r(nle)-NH2] (H-[dK][dK][d1Nal][dF][dK][d1Nal][dR][dNle]-NH2; N-terminus assumed), the “%H (% Hemolysis at 150 µM)” value is on record as 51%.
